Literature values as cited in patent US8883820B2, “Triazole derivatives as kinase inhibitors” (Cellzome Ltd., priority 2006, dated 2014).

Key:
[1] = test system: systemic lupus erythematosus (SLE); conditions: intraperitoneal administration
[2] = test system: lymphocyte-dependent rheumatoid arthritis induced by direct collagen II injection; conditions: oral
[3] = test system: collagen II-antibody-induced arthritis; conditions: oral, wildtype mice

| SMILES | cardioprotection (myocardial infarction; dosing after myocardial reperfusion (up to 3 hours after)) | edema and inflammation in response to multiple mediators (myocardial infarction; in vivo) | CD4+ T-cell populations [1] | glomerulonephritis [1] | life span [1] | joint inflammation and damage [2] | clinical and histologic signs of collagen II-antibody-induced arthritis [3] |
| --- | --- | --- | --- | --- | --- | --- | --- |
| Nc1nc(N)c2nc(-c3cccc(O)c3)c(-c3cccc(O)c3)nc2n1 [TG100-115] | provided cardioprotection | potently inhibits |  |  |  |  |  |
| O=C1NC(=O)/C(=C\c2ccc3nccnc3c2)S1 [AS-605240] |  |  | reduced CD4+ T-cell populations | reduced glomerulonephritis | prolonged life span | decreased joint inflammation and damage | reduced clinical and histologic signs |
